Assay results from patent US6765003B1, “3-Arylsulfonyl-2 (substituted methyl) propanoic acid derivatives as matrix metalloproteinase inhibitors” (Pharmacia Italia, SpA, priority 1999, dated 2004).
Where a name gives a salt, the structure may show the parent alone. Read-outs that look alike come from different tables or passages of the source.

Experiments:
[1] = biological target: T1, Human gelatinase-A (MMP-2) (Homo sapiens, UniProt P08253); experiment: MMP inhibition, internal fluorescence quenching method (MCA peptide substrate); assay type: biochemical
T1 sequence (P08253 110-660): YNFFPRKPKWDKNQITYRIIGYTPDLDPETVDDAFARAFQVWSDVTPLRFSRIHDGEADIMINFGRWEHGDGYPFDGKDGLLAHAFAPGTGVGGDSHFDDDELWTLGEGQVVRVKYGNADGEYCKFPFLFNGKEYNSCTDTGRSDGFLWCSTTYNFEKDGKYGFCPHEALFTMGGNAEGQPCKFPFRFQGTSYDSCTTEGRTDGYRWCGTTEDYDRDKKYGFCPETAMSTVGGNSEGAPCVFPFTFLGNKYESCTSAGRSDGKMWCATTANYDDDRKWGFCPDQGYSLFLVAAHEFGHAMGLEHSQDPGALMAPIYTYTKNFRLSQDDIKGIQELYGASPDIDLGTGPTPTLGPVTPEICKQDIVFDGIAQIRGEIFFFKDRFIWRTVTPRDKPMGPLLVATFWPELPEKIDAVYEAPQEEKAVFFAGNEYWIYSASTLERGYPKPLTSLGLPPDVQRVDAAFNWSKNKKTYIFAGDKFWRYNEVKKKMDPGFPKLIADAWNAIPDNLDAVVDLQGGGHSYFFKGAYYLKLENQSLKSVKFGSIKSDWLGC
Procedure: (§1) The inhibitory activity of the compounds of the present invention was evaluated in vitro against one or more of the MMP enzymes (gelatinases, collagenases, stromelysins) using the internal fluorescence quenching method. The assay method is based on the hydrolysis of the MMP substrate, MCA-Pro-Leu-Gly-Leu-DPA-Ala—Arg-NH2 at 37° C. (see Knight, C. G. et al., FEBS Lett. 296:263-266, 1992). The enzymes cleave at the Gly-Leu bond removing the internally quenching DPA group. The release of the highly fluorescent peptide MCA-Pro-Leu was monitored with a LS50 Perkin Elmer fluorimeter equipped with a Peltier-thermostated cell holder using an excitation wavelength of 326 nm and an emission wavelenght of 398 nm. Slis were set at 14/14. Proper determination of steady-state rates of substrate cleavage required a preincubation at 37° C. of 15 minutes to allow for complete equilibration of the enzyme-inhibitor complex. […] Rates of substrate hydrolysis, expressed as fluorescence arbitrary units per minute, were calculated by least-square analysis of the steady-state linear progression curves. The steady-state rates were fitted to the Michaelis equation describing competitive inhibition; in particular, Ki,app were determined by fining the data to the tight-binding equation of Morrison (Biochem. Biophys. Acta, 185:269-286, 1969) by non-linear methods.
(§2) Human gelatinase-A (MMP-2) was obtained as penzyme (72 kDa) and was activated with 1 mM 4-aminophenylmercuric acetate for 30 min at 37° C. immediately prior to use. The inhibitor was diluted into the assay from a stock solution in 100% DMSO, and controls substituted an equal volume of DMSO so that the final DMSO concentration from inhibitor and substrate dilution in all assays was 1%. The concentration of MMP-2 was 19.2 picoM. For compounds of formula (I) where X is —OH, the assay buffer was 50 mM Tris/HCl pH 6.5 containing 150 mM NaCl, 10 mM CaCl2, 0.01 mM ZnCl2 and 0.05% Brij35 (Protocol A). Other conditions were as stated above.
The compounds of formula (I) where X is —NHOH were tested against MMP-2 and MMP-1 under the conditions stated above, but the assay solution was buffered at pH 7.4 (Protocol B).

[2] = biological target: T2, Human fibroblast collagenase (MMP-1) (Homo sapiens, UniProt P03956); experiment: as above; assay type: biochemical
T2 sequence (P03956 101-269): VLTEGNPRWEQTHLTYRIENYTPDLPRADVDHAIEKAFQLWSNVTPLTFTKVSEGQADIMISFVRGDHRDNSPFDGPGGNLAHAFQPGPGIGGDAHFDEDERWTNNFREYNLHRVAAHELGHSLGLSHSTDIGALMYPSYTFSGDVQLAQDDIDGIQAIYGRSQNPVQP
Procedure: as §1, §2
Assay conditions were the same as above, but enzyme concentration was 200 picoM.

[3] = Protocol A: Tris/HCl pH 6.5, 37° C., MMP-2 19.2 picoM, substrate 3 μM, carboxylic acids, read-out: MMP-2 Ki
[4] = Protocol B: pH 7.4, 37° C., hydroxamic acids (X is —NHOH), read-out: MMP-2 Ki (picoM)
[5] = Protocol B: pH 7.4, 37° C., hydroxamic acids (X is —NHOH), read-out: MMP-1 Ki (picoM)
[6] = Protocol A: pH 6.5, 37° C., enzyme 200 picoM, substrate 3 μM, carboxylic acids, read-out: MMP-1 Ki

Row | Structure (SMILES) | Ki [1, 3] [nM] | Ki [2, 6] [µM] | also measured
1 | N#Cc1ccc(-c2ccc(S(=O)(=O)CC(CSc3ccccc3)C(=O)O)cc2)cc1 (centres unmarked) [Example 19, 3-[(4′-cyano[1,1′-biphenyl]-4-yl)sulfonyl]-2-[(phenylsulfanyl)methyl]propanoic acid] | 17 |  | 
2 | O=C(O)C(CSc1nc2ccccc2[nH]1)CS(=O)(=O)c1ccc(-c2ccc(Cl)cc2)cc1 (centres unmarked) [Example 37, 3-[(4′-chloro[1,1′-biphenyl]-4-yl)sulfonyl]-2-[(1H-benzimidazol-2-yl-sulfanyl)methyl]-propanoic acid] | 18.2 |  | 
3 | CC1(C)NC(=O)N(CC(CS(=O)(=O)c2ccc(-c3ccc(Cl)cc3)cc2)C(=O)NO)C1=O (centres unmarked) [Example 10, 3-[(4′-chloro[1,1′-biphenyl]-4-yl)sulfonyl]-N-hydroxy-2-[(4,4-dimethyl-2,5-dioxo-1-imidazolidinyl)methyl]propanamide] |  |  | Ki [1, 4]: 0.05 nM; Ki [2, 5]: 0.0126 µM
4 | CN1C(=O)N(CC(CS(=O)(=O)c2ccc(-c3ccc(Cl)cc3)cc2)C(=O)O)C(=O)C1(C)C (single isomer, unassigned) [6, Isomer 2] | 50 |  | 
5 | O=C(O)C(CN1C(=O)CNC1=O)CS(=O)(=O)c1ccc(-c2ccc(Cl)cc2)cc1 (centres unmarked) [Example 11, 3-[(4′-chloro[1,1′-biphenyl]-4-yl)sulfonyl]-2-[(2,5-dioxo-1-imidazolidinyl)methyl]propanoic acid] | 4 |  | melting point: 188 to 190 °C
6 | O=C(O)C(COc1ccccc1CO)CS(=O)(=O)c1ccc(-c2ccc(Cl)cc2)cc1 (centres unmarked) [Example 33, 3-[(4′-chloro[1,1′-biphenyl]-4-yl)sulfonyl]-2-[[2-(hydroxymethyl)phenoxy]-methyl]propanoic acid] | 15 |  | 
7 | CN1C(=O)N(CC(CS(=O)(=O)c2ccc(-c3ccc(Cl)cc3)cc2)C(=O)NO)C(=O)C1(C)C (centres unmarked) [Example 8, 3-[(4′-chloro[1,1′-biphenyl]-4-yl)sulfonyl]-N-hydroxy-2-[(3,4,4-trimethyl-2,5-dioxo-1-imidazolidinyl)methyl]propanamide] |  |  | Ki [1, 4]: 0.107 nM; Ki [2, 5]: 0.0268 µM
8 | O=C(Nc1ccc(S(=O)(=O)CC(CSc2ccccc2)C(=O)O)cc1)c1ccccc1 (centres unmarked) [Example 15, 3-[[4-(Benzoylamino)phenyl]sulfonyl]-2-[(phenylsulfanyl)methyl]propanoic acid] | 7 | 81.1 | 
9 | CCCCN1C(=O)CN(CC(CS(=O)(=O)c2ccc(-c3ccc(Cl)cc3)cc2)C(=O)O)C1=O (centres unmarked) [Example 18, 3-[(4′-chloro[1,1′-biphenyl]-4-yl)sulfonyl]-2-[(3-butyl-2,4-dioxo-1-imidazolidinyl)methyl]propanoic acid] | 7.8 |  | 
10 | O=C(O)C(CSc1ccc(O)cc1)CS(=O)(=O)c1ccc(-c2ccc(Cl)cc2)cc1 (centres unmarked) [Example 16, 3-[(4′-chloro[1,1′-biphenyl]-4-yl)sulfonyl]-2-[[(4-hydroxyphenyl)sulfanyl]methyl]propanoic acid] | 9 | 9.7 | 
11 | CN1C(=O)N(CC(CS(=O)(=O)c2ccc(-c3ccc(Cl)cc3)cc2)C(=O)O)C(=O)C1(C)C (single isomer, unassigned) [6, Isomer 1] | 3.7 | 3.6 | 
12 | CC(=O)Nc1ccc(OCC(CS(=O)(=O)c2ccc(-c3ccc(Cl)cc3)cc2)C(=O)O)cc1 (centres unmarked) [Example 30, 3-[(4′-chloro[1,1′-biphenyl]-4-yl)sulfonyl]-2-[(4-acetylaminophenoxy)methyl]propanoic acid] | 46 | 19.6 | 
13 | O=C(Nc1ccc(S(=O)(=O)CC(CSc2cccs2)C(=O)O)cc1)c1ccccc1 (centres unmarked) [Example 14, 3-[[4-(Benzoylamino)phenyl]sulfonyl]-2-[(2-thienylsulfanyl)methyl]propanoic acid] | 8 |  | 
14 | N#Cc1ccc(C(=O)Nc2ccc(S(=O)(=O)CC(COc3ccccc3)C(=O)O)cc2)cc1 (centres unmarked) [Example 35, 3-[[4-[(4-cyanobenzoyl)amino]phenyl]sulfonyl]-2-(phenoxymethyl)propanoic acid] | 4.8 | 67.5 | 
15 | O=C(Nc1ccc(S(=O)(=O)CC(CSc2ccccc2)C(=O)O)cc1)c1ccc(Cl)cc1 (centres unmarked) [Example 21, 3-[[4-[(4-chlorobenzoyl)amino]phenyl]sulfonyl]-2-[(phenylsulfanyl)methyl]-propanoic acid] | 1.4 | 50.6 | 
16 | CN1C(=O)N(CC(CS(=O)(=O)c2ccc(-c3ccc(Cl)cc3)cc2)C(=O)O)C(=O)C1(C)C (racemic) [Example 5, 3-[(4′-chloro[1,1′-biphenyl]-4-yl)sulfonyl]-2-[(3,4,4-trimethyl-2,5-dioxo-1-imidazolidinyl)methyl]propanoic acid] | 5.5 | > 2 | 
17 | O=C(O)C(CSc1ccccc1)CS(=O)(=O)c1ccc(-c2ccc(Cl)cc2)cc1 (single isomer, unassigned) [3, Isomer 1] | 6 |  | 
18 | O=C(O)C(CSc1ccccn1)CS(=O)(=O)c1ccc(-c2ccc(Cl)cc2)cc1 (centres unmarked) [Example 20, 3-[(4′-chloro[1,1′-biphenyl]-4-yl)sulfonyl]-2-[(2-pyridinylsulfanyl)methyl]propanoic acid] | 3.9 | 6.29 | 
19 | CCCCN1CC(=O)N(CC(CS(=O)(=O)c2ccc(-c3ccc(Cl)cc3)cc2)C(=O)O)C1=O (centres unmarked) [Example 13] | 12 | 5.29 | 
20 | O=C(O)C(COc1ccccc1)CS(=O)(=O)c1ccc(-c2ccc(Cl)cc2)cc1 (centres unmarked) [Example 17, 3-[(4′-Chloro[1,1′-biphenyl]-4-yl)sulfonyl]-2-(phenoxymethyl)propanoic acid, sodium salt] | 9.2 | 14.7 | 
21 | O=C(O)C(CSc1ccccc1)CS(=O)(=O)c1ccc(-c2ccc(Cl)cc2)cc1 (single isomer, unassigned) [3, Isomer 2] | 660 |  | 
22 | O=C(Nc1ccc(S(=O)(=O)CC(COc2ccccc2)C(=O)O)cc1)c1ccc(Cl)cc1 (centres unmarked) [Example 34, 3-[[4-[(4-chlorobenzoyl)amino]phenyl]sulfonyl]-2-(phenoxymethyl)propanoic acid] | 2.4 | 54 | 
23 | Cc1nnc(SCC(CS(=O)(=O)c2ccc(-c3ccc(Cl)cc3)cc2)C(=O)O)s1 (centres unmarked) [Example 36, 3-[(4′-chloro[1,1′-biphenyl]-4-yl)sulfonyl]-2-[[(S-methyl-1,3,4-thiadiazol-2-yl)sulfanyl]methyl]propanoic acid.] | 33.4 |  | 
24 | O=C(NO)C(CSc1ccccc1)CS(=O)(=O)c1ccc(-c2ccc(Cl)cc2)cc1 (centres unmarked) [Example 4, 3-[(4′-chloro[1,1′-biphenyl]-4-yl)sulfonyl]-N-hydroxy-2-[(phenylsulfanyl)methyl]propanamide] |  |  | Ki [1, 4]: 0.159 nM; Ki [2, 5]: 0.149 µM
25 | Cn1ccnc1SCC(CS(=O)(=O)c1ccc(-c2ccc(Cl)cc2)cc1)C(=O)O (centres unmarked) [Example 25, 3-[(4′-chloro[1,1′-biphenyl]-4-yl)sulfonyl]-2-[[(1-methyl-1H-imidazol-2-yl)sulfanyl]methyl]propanoic acid] | 16 |  | 
26 | N#Cc1ccc(-c2ccc(S(=O)(=O)CC(COc3ccccc3)C(=O)O)cc2)cc1 (centres unmarked) [Example 29, 3-[(4′-cyano[1,1′-biphenyl]-4-yl)sulfonyl]-2-(phenoxymethyl)propanoic acid, sodium salt] | 21.5 |  | 
